This is an account of results in US8815901B2 (Novartis AG, priority 2008, dated 2014).

Molecules are shown by their SMILES.

Sequence of FGFR3 kinase (P22607 23-806 K650E): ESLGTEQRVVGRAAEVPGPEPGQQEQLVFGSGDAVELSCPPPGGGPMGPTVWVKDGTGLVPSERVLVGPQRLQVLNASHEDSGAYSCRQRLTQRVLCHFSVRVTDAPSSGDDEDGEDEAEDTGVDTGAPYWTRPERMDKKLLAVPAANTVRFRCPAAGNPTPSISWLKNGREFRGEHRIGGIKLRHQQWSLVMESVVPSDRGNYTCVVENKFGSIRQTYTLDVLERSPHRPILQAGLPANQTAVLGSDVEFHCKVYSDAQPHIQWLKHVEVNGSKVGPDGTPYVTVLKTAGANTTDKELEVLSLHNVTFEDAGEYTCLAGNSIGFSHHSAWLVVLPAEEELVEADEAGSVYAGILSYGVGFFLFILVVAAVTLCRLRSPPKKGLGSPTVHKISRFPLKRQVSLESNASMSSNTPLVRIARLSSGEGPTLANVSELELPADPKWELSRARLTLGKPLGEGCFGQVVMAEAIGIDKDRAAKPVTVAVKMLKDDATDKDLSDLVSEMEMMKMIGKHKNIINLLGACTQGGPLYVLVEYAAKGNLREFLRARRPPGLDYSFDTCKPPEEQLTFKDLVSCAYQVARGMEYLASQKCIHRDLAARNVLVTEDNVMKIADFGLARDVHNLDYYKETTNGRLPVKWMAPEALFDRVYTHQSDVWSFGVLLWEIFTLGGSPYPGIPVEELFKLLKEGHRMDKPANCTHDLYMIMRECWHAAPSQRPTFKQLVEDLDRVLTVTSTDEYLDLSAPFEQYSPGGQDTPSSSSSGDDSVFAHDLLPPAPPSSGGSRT

This test has as its target FGFR3 kinase (Homo sapiens (Human), UniProt P22607, K650E). Put plainly: FGFR3 kinase inhibition assay (radiometric filter binding / LanthaScreen TR-FRET). To be noted: read-out: rating (FGFR3 kinase IC50). It counts as biochemical. The protocol: Enzyme activities were measured by mixing 10 μL of a 3-fold concentrated compound solution or control with 10 μL of the corresponding substrate mixture (peptidic substrate, ATP and [γ^33P]ATP). The reactions were initiated by addition of 10 μL of a 3-fold concentrated solution of the respective enzyme in assay buffer.
Filter binding (FB) method: FB assays were carried out in 96-well plates at room temperature for 10 min in a finial volume of 30 μL including the components as indicated in section above. […] After spotting, vacuum was connected and each well rinsed with 200 μL 0.5% H3PO4. Free membranes were removed and washed 4 times on a shaker with 1% H3PO4 and once with ethanol. Membranes were dried and overlaid with addition of 10 μL/well of a scintillation fluid. The plates were eventually sealed and counted in a microplate scintillation counter. IC50 values were calculated by linear regression analysis of the percentage inhibition of the compound.
The assay has been run at room temperature on a liquid handling robot. […] After an incubation time of 45 min in the dark, the plates were transferred into a fluorescence reader for counting.
Compounds of formula (I) are assayed to measure their capacity to inhibit FGFR3 kinase as described above.
On the technique in general: Time-resolved FRET reads energy transfer from a long-lived donor to a nearby acceptor.
For the compound `CCN1CCN(c2ccc(NC(=O)c3ccc(-c4c(Cl)c(OC)cc(OC)c4Cl)c4nccnc34)cc2)CC1` [Example 1, 8-(2,6-Dichloro-3,5-dimethoxy-phenyl)-quinoxaline-5-carboxylic acid [4-(4-ethylpiperazin-1-yl)-phenyl]-amide], the concentration for half-maximal inhibition (IC50) (in general, the midpoint of a concentration-inhibition curve) was under 100 nM. In the case of `COc1cc(OC)c(Cl)c(-c2ccc(C(=O)Nc3ccc(OCCN(C)C)cc3)c3nccnc23)c1Cl` [Example 5, 8-(2,6-Dichloro-3,5-dimethoxy-phenyl)-quinoxaline-5-carboxylic acid [4-(2-dimethylamino-ethoxy)-phenyl]-amide], the 50% inhibitory concentration (IC50) was under 100 nM. With `COc1cc(OC)c(Cl)c(-c2ccc(C(=O)Nc3ccc(O)cc3)c3nccnc23)c1Cl` [Example 7, 8-(2,6-Dichloro-3,5-dimethoxy-phenyl)-quinoxaline-5-carboxylic acid (4-hydroxyphenyl)-amide], the IC50 is 500 to 50000 nM. Under `COc1cc(OC)c(Cl)c(-c2ccc(C(=O)Nc3nnc[nH]3)c3nccnc23)c1Cl` [Example 17, 8-(2,6-Dichloro-3,5-dimethoxy-phenyl)-quinoxaline-5-carboxylic acid (4H-[1,2,4]triazol-3-yl)-amide] stands 500 to 50000 nM. Regarding `COc1cc(OC)c(Cl)c(-c2ccc(C(=O)Nc3ccc(N4CCN(C(C)C)CC4)nc3)c3nccnc23)c1Cl` [Example 33, 8-(2,6-Dichloro-3,5-dimethoxy-phenyl)-quinoxaline-5-carboxylic acid [6-(4-isopropyl-piperazin-1-yl)-pyridin-3-yl]-amide], the IC50 was under 100 nM. `COc1cc(OC)c(Cl)c(-c2ccc(C(=O)Nc3ccc(N(C)C4CCN(C)CC4)nc3)c3nccnc23)c1Cl` [Example 37, 8-(2,6-Dichloro-3,5-dimethoxy-phenyl)-quinoxaline-5-carboxylic acid {6-[methyl-(1-methyl-piperidin-4-yl)-amino]-pyridin-3-yl}-amide]: the IC50 is under 100 nM. As for `COc1ccc(Cl)c(-c2ccc(C(=O)Nc3ccc(OCCN(C)C)cc3)c3nccnc23)c1` [Example 65, 8-(2-Chloro-5-methoxy-phenyl)-quinoxaline-5-carboxylic acid [4-(2-dimethylamino-ethoxy)-phenyl]-amide], the IC50 was 500 to 50000 nM. Then `CCN1CCN(c2ccc(NC(=O)c3ccc(-c4c(C)cccc4C)c4nccnc34)cc2)CC1` [Example 72, 8-(2,6-Dimethyl-phenyl)-quinoxaline-5-carboxylic acid [4-(4-ethyl-piperazin-1-yl)-phenyl]-amide], with 500 to 50000 nM. For `COc1cc(OC)c(Cl)c(-c2ccc(C(=O)Nc3ccc(CN(C)CCN(C)C)cn3)c3nccnc23)c1Cl` [Example 81, 8-(2,6-Dichloro-3,5-dimethoxy-phenyl)-quinoxaline-5-carboxylic acid (5-{[(2-dimethylamino-ethyl)-methyl-amino]-methyl}-pyridin-2-yl)-amide], the IC50 was under 100 nM.

Consider `COc1cc(OC)c(Cl)c(-c2ccc(C(=O)Nc3cccnc3)c3ncc(N(C)CCN(C)C)nc23)c1Cl` [Example 87, 8-(2,6-Dichloro-3,5-dimethoxy-phenyl)-2-[(2-dimethylamino-ethyl)-methyl-amino]-quinoxaline-5-carboxylic acid pyridin-3-ylamide], for which the IC50 fell in the range of 500 to 50000 nM. On to `CCN1CCN(Cc2ccc(NC(=O)c3ccc(-c4c(F)c(OC)cc(OC)c4F)c4nccnc34)cn2)CC1` [Example 88, 8-(2,6-Difluoro-3,5-dimethoxy-phenyl)-quinoxaline-5-carboxylic acid [6-(4-ethyl-piperazin-1-ylmethyl)-pyridin-3-yl]-amide], for which the half-maximal inhibitory concentration (IC50) is under 100 nM. For `COc1cc(OC)c(F)c(-c2ccc(C(=O)Nc3ccc(CN4CCN(C)CC4)nc3)c3nccnc23)c1F` [Example 89, 8-(2,6-Difluoro-3,5-dimethoxy-phenyl)-quinoxaline-5-carboxylic acid [6-(4-methyl-piperazin-1-ylmethyl)-pyridin-3-yl]-amide], the half-inhibitory concentration (IC50) was under 100 nM.

Take `COc1cc(OC)c(F)c(-c2ccc(C(=O)Nc3cccnc3)c3nccnc23)c1F` [Example 90, 8-(2,6-Difluoro-3,5-dimethoxy-phenyl)-quinoxaline-5-carboxylic acid pyridin-3-ylamide]: the IC50 is 100 to 500 nM. Turning to `COc1cc(OC)c(Cl)c(-c2ccc(C(=O)Nc3ccc(CN4CCS(=O)(=O)CC4)cn3)c3nccnc23)c1Cl` [Example 104, 8-(2,6-Dichloro-3,5-dimethoxy-phenyl)-quinoxaline-5-carboxylic acid [5-(1,1-dioxothiomorpholin-4-ylmethyl)-pyridin-2-yl]-amide], the half-maximal inhibitory concentration (IC50) fell in the range of 100 to 500 nM. Then `CCN1CCN(Cc2ccc(NC(=O)c3ccc(-c4cc(OC)cc(OC)c4)c4nccnc34)nc2)CC1` [Example 115, 8-(3,5-Dimethoxy-phenyl)-quinoxaline-5-carboxylic acid [5-(4-ethyl-piperazin-1-ylmethyl)-pyridin-2-yl]-amide], with 500 to 50000 nM. Take `COc1cc(OC)cc(-c2ccc(C(=O)Nc3ccc(CN4CCNCC4)cn3)c3nccnc23)c1` [Example 117]: the half-maximal inhibitory concentration (IC50) was 500 to 50000 nM. Then `COc1cc(OC)c(Cl)c(-c2ccc(C(=O)Nc3ccn(CCN(C)C)c3)c3nccnc23)c1Cl` [Example 121, 8-(2,6-Dichloro-3,5-dimethoxy-phenyl)-quinoxaline-5-carboxylic acid [1-(2-dimethylamino-ethyl)-1H-pyrrol-3-yl]-amide], with 500 to 50000 nM.

Take `COc1cc(OC)c(F)c(-c2ccc(C(=O)Nc3ccc(CN4CCS(=O)(=O)CC4)cn3)c3nccnc23)c1F` [Example 140, 8-(2,6-Difluoro-3,5-dimethoxy-phenyl)-quinoxaline-5-carboxylic acid [5-(1,1-dioxo-thiomorpholin-4-ylmethyl)-pyridin-2-yl]-amide]: the IC50 was under 100 nM. In the case of `COc1cc(OC)c(F)c(-c2ccc(C(=O)Nc3nc(CN4CCN(C)CC4)c[nH]3)c3nccnc23)c1F` [Example 141, 8-(2,6-Difluoro-3,5-dimethoxy-phenyl)-quinoxaline-5-carboxylic acid [4-(4-methyl-piperazin-1-ylmethyl)-1H-imidazol-2-yl]-amide], the IC50 was under 100 nM.

`COc1cc(OC)c(Cl)c(-c2ccc(C(=O)Nc3nccn3Cc3ccccc3)c3ncccc23)c1Cl` [Example 160, 5-(2,6-Dichloro-3,5-dimethoxy-phenyl)-quinoline-8-carboxylic acid (1-benzyl-1H-imidazol-2-yl)-amide]: the IC50 was 500 to 50000 nM. Under `COc1cc(OC)c(Cl)c(-c2ccc(C(=O)Nc3ncc[nH]3)c3ncccc23)c1Cl` [Example 161, 5-(2,6-Dichloro-3,5-dimethoxy-phenyl)-quinoline-8-carboxylic acid (1H-imidazol-2-yl)-amide] stands under 100 nM; under `COc1cc(OC)c(Cl)c(-c2ccc(C(=O)Nc3cnc[nH]3)c3ncccc23)c1Cl` [Example 162, 5-(2,6-Dichloro-3,5-dimethoxy-phenyl)-quinoline-8-carboxylic acid (3H-imidazol-4-yl)-amide], 100 to 500 nM; under `COc1cc(OC)c(Cl)c(-c2ccc(C(=O)Nc3nnc[nH]3)c3ncccc23)c1Cl` [Example 163], 500 to 50000 nM. Under `COc1cc(OC)c(Cl)c(-c2ccc(C(=O)Nc3ccc(CN4CCN(C)CC4)cn3)c3ncccc23)c1Cl` [Example 164, 5-(2,6-Dichloro-3,5-dimethoxy-phenyl)-quinoline-8-carboxylic acid [5-(4-methyl-piperazin-1-ylmethyl)-pyridin-2-yl]-amide] stands under 100 nM; under `CCN1CCN(Cc2ccc(NC(=O)c3ccc(-c4c(Cl)c(OC)cc(OC)c4Cl)c4cccnc34)nc2)CC1` [Example 165, 5-(2,6-Dichloro-3,5-dimethoxy-phenyl)-quinoline-8-carboxylic acid [5-(4-ethyl-piperazin-1-ylmethyl)-pyridin-2-yl]-amide], 100 to 500 nM. Under `COc1cc(OC)c(Cl)c(-c2ccc(C(=O)Nc3ccc(CN4CCN(C)CC4)nc3)c3ncccc23)c1Cl` [Example 168, 5-(2,6-Dichloro-3,5-dimethoxy-phenyl)-quinoline-8-carboxylic acid [6-(4-methyl-piperazin-1-ylmethyl)-pyridin-3-yl]-amide] stands 100 to 500 nM; under `CCN1CCN(Cc2ccc(NC(=O)c3ccc(-c4c(Cl)c(OC)cc(OC)c4Cl)c4cccnc34)cn2)CC1` [Example 169, 5-(2,6-Dichloro-3,5-dimethoxy-phenyl)-quinoline-8-carboxylic acid [6-(4-ethyl-piperazin-1-ylmethyl)-pyridin-3-yl]-amide], 100 to 500 nM. As for `COc1cc(OC)c(Cl)c(-c2ccc(C(=O)Nc3ccc(CN4CCNCC4)nc3)c3ncccc23)c1Cl` [Example 171, 5-(2,6-Dichloro-3,5-dimethoxy-phenyl)-quinoline-8-carboxylic acid (6-piperazin-1-ylmethyl-pyridin-3-yl)-amide], the IC50 lay within 500 to 50000 nM.
